Results taken from patent publication US11759444B2, “Methods for cancer and immunotherapy using prodrugs of glutamine analogs” (The Johns Hopkins University, priority 2015, dated 2023).
“Also recorded” adds a separate entry of the source. Where two headings read alike, the source gives them in different places. Values belong to the compound of their own block, whether it stands above or below them.

Assays:
[1] = In vitro plasma stability, dog plasma; format: in vitro ADME
[2] = In vitro plasma stability, pig plasma; format: in vitro ADME
[3] = In vitro plasma stability, human plasma
[4] = Plasma and CSF pharmacokinetics in swine, i.v. infusion; format: in vivo, Göttingen×Yucutan miniature swine; details: 60 min post-administration
[5] = In vitro plasma stability, monkey plasma
[6] = In vitro plasma stability, mouse plasma
[7] = Plasma and CSF pharmacokinetics in monkeys, i.v.; format: in vivo, pigtail macaques; details: monkey
Procedure: All monkey studies were conducted according to protocol (#PR15M298) approved by the Animal Care and Use Committee at Johns Hopkins University. Two female pigtail monkeys (approximately 3.5 kg, non-drug naive) were adjacently housed in stainless steel cages on a social interaction rack (contains 4 cages, each 32.5″ wide×28″ deep×32″ high) maintaining temperature of 64-84° F., humidity of 30-70% with alternating 14-10 hour light/dark cycle as per the USDA Animal Welfare Act (9 CFR, Parts 1, 2, and 3). Food was provided daily in amounts appropriate for the size and age of the animals and RO purified water provided ad libitum through an in-cage lixit valve. Food enrichment was provided Monday through Friday. […]
(§1) We have previously published a highly sensitive method for analysis of DON in biological matrices (Alt, et al., 2015). […] The mean predicted […] for back calculated concentrations of the standards and QC's for all analytes were within the range of 85 to 115%, except for the lowest concentration which was within the range of 80 to 120% with an overall accuracy and precision of 6.7% and 6.6% respectively.
Mean concentration-time data was used for pharmacokinetic analysis. […] Area under the curve (AUC) was calculated by log-linear trapezoidal rule to the end of sample collection (AUClast). […]

[8] = Brain and plasma pharmacokinetics in mice, oral; format: in vivo, C57BL/6 mice; details: 0.8 mg/kg DON equivalent
Procedure: All pharmacokinetic studies in mice were conducted according to protocol (#M013M113) approved by the Animal Care and Use Committee at Johns Hopkins University. C57BL/6 mice between 25 and 30 g were obtained from Harlan, and maintained on a 12 hour light-dark cycle with ad libitum access to food and water. To evaluate the brain and plasma pharmacokinetics of DON and its prodrug 5c, 8-12 week old C57BL/6 were administered DON (1; 0.8 mg/kg, p.o. in phosphate-buffered saline) and its prodrug 5c (at 0.8 mg/kg equivalent DON (1), p.o. in phosphate-buffered saline with 5% EtOH and 5% Tween-80). The mice were sacrificed by pentobarbital injection at 10, 30 and 90 minutes post drug administration, and blood was collected via cardiac puncture and placed into iced EDTA coated BD microtainers. […]
as §1
Mean concentration-time data was used for pharmacokinetic analysis. […] Area under the curve (AUC) was calculated by log-linear trapezoidal rule to the end of sample collection (AUClast).

[9] = cited from earlier work
EL4 lymphoma = experiment: EL4 mouse lymphoma model; format: in vivo; details: monotherapy
TILs = experiment: CD8/Treg ratio in the tumor and hypoxia in the TILs; details: in vivo
tumor cells = experiment: Oxygen consumption and lactate production of tumor cells; format: cell-based
B16 melanoma = B16 melanoma mouse model; format: in vivo
U87 human glioma cells = experiment: U87 flank xenograft mouse model of GBM; format: in vivo; details: 0.8 mg/kg, i.p.; for GBM tumor growth: q.d. days 1-6
Procedure: All mouse efficacy studies were conducted according to protocol #M013M69 approved by the Animal Care and Use Committee at Johns Hopkins University. Female athymic (RH_Foxn1nu mice) mice between 25 and 30 g were obtained (Harlan Sprague Dawley Inc, Indianapolis, Ind.), and maintained on a 12 hour light-dark cycle with ad libitum access to food and water. U87 human glioma cells were injected s.c. (5×10^6 cells in […] of PBS) in four separate locations on the flanks of each mouse. When tumors grew to a mean volume of around 200 mm^3, mice were randomized into either vehicle (HEPES-buffered saline, i.p.) or DON (1; 0.8 mg/kg, i.p.). In one cohort, mice were administered a single dose of the appropriate solution two hours after which glutamine levels were quantified in the tumor as described previously.^49 In brief, tumors were harvested, snap frozen, and homogenized in liquid N2 then subjected to metabolite extraction using methanol and DI water. Quantification was performed using Agilent 6520 Quadrupole-Time-of-Flight (Q-TOF) mass spectrometer with Agilent 1290 HPLC and using Agilent Mass Hunter and Agilent Qualitative and Quantitative Analysis Software packages. Glutamine content was averaged by group for each individual tumor (n=3-4/group), depicted as relative intensity, and analyzed by one-tailed t test. In a second cohort, efficacy experiments were conducted. Mice were injected once daily for six days; tumor volumes were measured using digital calipers and calculated according to the formula: [volume=(largest tumor dimension)×(smallest tumor dimension)×0.52] at 2, 4, and 6 days after the onset of treatment. Each individual tumor (n=8-10/group) was normalized to its pretreatment volume, averaged and analyzed by repeated measures two-way analysis of variance (ANOVA). If significant, a Bonferroni post hoc test was subsequently applied. Significance was defined as p<0.05.

[10] = Table 2, prodrug 10 μM, 60 min incubation at 37° C., values read as % prodrug remaining

stability in dog plasma [1]: stable
stability in pig plasma [2]: stable
stability in human plasma [3]: stable
PLASMA STABILITY Human [3, 10]: 91%
stability in monkey plasma [5]: stable
PLASMA STABILITY Monkey [5, 10]: 61%
metabolism in mouse plasma [6]: rapidly metabolized
PLASMA STABILITY Mouse [6, 10]: 0%
metabolism in mouse plasma ([6]; listed as 5c): completely converted to DON
CSF:plasma ratio of DON [7]: enhanced CSF:plasma ratio of DON
SMILES: CC(C)OC(=O)[C@H](CCC(=O)C=[N+]=[N-])NC(=O)O[C@H](C)OC(=O)C(C)(C)C (single isomer, unassigned) [Compound 14b]
stability in human plasma ([3]; listed as 5c): stable; also recorded: excellent stability
CSF delivery of DON [4]: substantially higher amounts of DON; also recorded: enhanced CSF delivery of DON
CSF-to-plasma ratio of DON [4]: increased CSF-to-plasma ratios; also recorded: enhanced CSF:plasma ratio of DON
stability in monkey plasma ([5]; listed as 5c): stable; also recorded: excellent stability

SMILES: [N-]=[N+]=CC(=O)CC[C@H](N)C(=O)O [DON, 6-diazo-5-oxo-L-norleucine]
AUC0-t of DON in brain [8]: 0.57 nmol·h/g
clinical toxicity ([9]; human, in vivo): dose limiting toxicities, many of which were GI-related
regression or stable disease in patients ([9]; late stage adult patients, children with hematological malignancies or solid tumors): > 50%
lymphoma tumor growth (EL4 lymphoma): markedly inhibit lymphoma growth
CD8/Treg ratio in the tumor (TILs): improved the CD8/Treg ratio
hypoxia in the TILs (TILs): reduces hypoxia in the TILs
lactate production of tumor cells (tumor cells): reduces
oxygen consumption of tumor cells (tumor cells): reduces
tumor infiltrating regulatory T cells (Foxp3+) (B16 melanoma; B16 melanoma): inhibiting tumor infiltrating regulatory T cells
melanoma tumor growth (B16 melanoma; monotherapy): modest effect
glutamine metabolism in flank GBM tumor (endogenous glutamine accumulation) (U87 human glioma cells; 2 hours post-administration): inhibited glutamine metabolism
reduction in tumor volume (U87 human glioma cells; q.d.): > 50%
weight loss (U87 human glioma cells; q.d.): 12±4.1%
GBM tumor growth (U87 human glioma cells): halted tumor growth, but also effectively induced tumor regression
GBM tumor growth (U87 human glioma cells; listed as 1): dramatic reduction in tumor size
signs of toxicity (U87 human glioma cells; q.d., all mice receiving DON): hunching, ptosis, and lethargy
